In ChEMBL document CHEMBL1126299, “Synthesis and structure-activity relationships of cephalosporins with C-3' catechol-containing residues” (J Med Chem, 1992):
≈ marks a conversion by molar mass, not a printed value.

test system: Enterobacter cloacae; experiment: microbe, parasite or virus in culture; details: not given

Q: Which MIC does the source give for `CCO/N=C(\C(=O)N[C@@H]1C(=O)N2C(C(=O)O)=C(CNC(=O)c3cc(O)c(O)c(Br)c3)CSC12)c1csc(N)n1` (stereo not given in full) here?
A: 0.015 µg/mL (≈ 0.0234 µM)

Q: Which MIC does the source give for `CCN(CC1=C(C(=O)O)N2C(=O)[C@@H](NC(=O)/C(=N\OC(C)(C)C(=O)O)c3csc(N)n3)C2SC1)C(=O)c1cc(O)c(O)c(Cl)c1` (stereo not given in full) here?
A: 0.125 µg/mL (≈ 0.183 µM)

test system: Citrobacter freundii; experiment: microbe, parasite or virus in culture; details: not given

Q: With `CCO/N=C(\C(=O)N[C@@H]1C(=O)N2C(C(=O)O)=C(CNC(=O)c3cc(O)c(O)c(Br)c3)CSC12)c1csc(N)n1` (stereo not given in full) as the molecule, how does the MIC read?
A: 16 µg/mL (≈ 24.9 µM)

Q: For `CCN(CC1=C(C(=O)O)N2C(=O)[C@@H](NC(=O)/C(=N\OC(C)(C)C(=O)O)c3csc(N)n3)C2SC1)C(=O)c1cc(O)c(O)c(Cl)c1` (stereo not given in full), which MIC is on record?
A: 1 µg/mL (≈ 1.46 µM)

test system: Providencia stuartii; experiment: microbe, parasite or virus in culture; details: not given

Q: With `CCO/N=C(\C(=O)N[C@@H]1C(=O)N2C(C(=O)O)=C(CNC(=O)c3cc(O)c(O)c(Br)c3)CSC12)c1csc(N)n1` (stereo not given in full) as the molecule, how does the MIC read?
A: 0.125 µg/mL (≈ 0.195 µM)

Q: Which MIC does the source give for `CCN(CC1=C(C(=O)O)N2C(=O)[C@@H](NC(=O)/C(=N\OC(C)(C)C(=O)O)c3csc(N)n3)C2SC1)C(=O)c1cc(O)c(O)c(Cl)c1` (stereo not given in full) here?
A: 0.25 µg/mL (≈ 0.366 µM)

test system: not listed separately; experiment: The half life period in marmosets; format: ADME; details: callithrix, in vivo

Q: For `CCO/N=C(\C(=O)N[C@@H]1C(=O)N2C(C(=O)O)=C(CNC(=O)c3cc(O)c(O)c(Br)c3)CSC12)c1csc(N)n1` (stereo not given in full), which half-life is on record?
A: 40.2 min

Q: Which half-life does the source give for `CCN(CC1=C(C(=O)O)N2C(=O)[C@@H](NC(=O)/C(=N\OC(C)(C)C(=O)O)c3csc(N)n3)C2SC1)C(=O)c1cc(O)c(O)c(Cl)c1` (stereo not given in full) here?
A: 52.2 min

test system: Pseudomonas aeruginosa; experiment: microbe, parasite or virus in culture; details: not given

Q: With `CCO/N=C(\C(=O)N[C@@H]1C(=O)N2C(C(=O)O)=C(CNC(=O)c3cc(O)c(O)c(Br)c3)CSC12)c1csc(N)n1` (stereo not given in full) as the molecule, how does the MIC read?
A: 0.015 µg/mL (≈ 0.0234 µM)

Q: For `CCN(CC1=C(C(=O)O)N2C(=O)[C@@H](NC(=O)/C(=N\OC(C)(C)C(=O)O)c3csc(N)n3)C2SC1)C(=O)c1cc(O)c(O)c(Cl)c1` (stereo not given in full), which MIC is on record?
A: 0.008 µg/mL (≈ 0.0117 µM)

test system: Pseudomonas aeruginosa; experiment: microbe, parasite or virus in culture; details: not given; remark: another data set of the same source

Q: With `CCO/N=C(\C(=O)N[C@@H]1C(=O)N2C(C(=O)O)=C(CNC(=O)c3cc(O)c(O)c(Br)c3)CSC12)c1csc(N)n1` (stereo not given in full) as the molecule, how does the MIC read?
A: 0.008 µg/mL (≈ 0.0125 µM)

Q: For `CCN(CC1=C(C(=O)O)N2C(=O)[C@@H](NC(=O)/C(=N\OC(C)(C)C(=O)O)c3csc(N)n3)C2SC1)C(=O)c1cc(O)c(O)c(Cl)c1` (stereo not given in full), which MIC is on record?
A: 0.008 µg/mL (≈ 0.0117 µM)

test system: Providencia stuartii; experiment: microbe, parasite or virus in culture; details: not given; remark: another data set of the same source

Q: Which MIC does the source give for `CCO/N=C(\C(=O)N[C@@H]1C(=O)N2C(C(=O)O)=C(CNC(=O)c3cc(O)c(O)c(Br)c3)CSC12)c1csc(N)n1` (stereo not given in full) here?
A: 4 µg/mL (≈ 6.24 µM)

Q: Which MIC does the source give for `CCN(CC1=C(C(=O)O)N2C(=O)[C@@H](NC(=O)/C(=N\OC(C)(C)C(=O)O)c3csc(N)n3)C2SC1)C(=O)c1cc(O)c(O)c(Cl)c1` (stereo not given in full) here?
A: 8 µg/mL (≈ 11.7 µM)

test system: Enterobacter cloacae; experiment: microbe, parasite or virus in culture; details: not given; remark: another data set of the same source

Q: With `CCO/N=C(\C(=O)N[C@@H]1C(=O)N2C(C(=O)O)=C(CNC(=O)c3cc(O)c(O)c(Br)c3)CSC12)c1csc(N)n1` (stereo not given in full) as the molecule, how does the MIC read?
A: 8 µg/mL (≈ 12.5 µM)

Q: Which MIC does the source give for `CCN(CC1=C(C(=O)O)N2C(=O)[C@@H](NC(=O)/C(=N\OC(C)(C)C(=O)O)c3csc(N)n3)C2SC1)C(=O)c1cc(O)c(O)c(Cl)c1` (stereo not given in full) here?
A: 1 µg/mL (≈ 1.46 µM)

test system: Enterobacter cloacae; experiment: microbe, parasite or virus in culture; details: not given; remark: another data set of the same source

Q: Which MIC does the source give for `CCO/N=C(\C(=O)N[C@@H]1C(=O)N2C(C(=O)O)=C(CNC(=O)c3cc(O)c(O)c(Br)c3)CSC12)c1csc(N)n1` (stereo not given in full) here?
A: 128 µg/mL (≈ 200 µM)

Q: With `CCN(CC1=C(C(=O)O)N2C(=O)[C@@H](NC(=O)/C(=N\OC(C)(C)C(=O)O)c3csc(N)n3)C2SC1)C(=O)c1cc(O)c(O)c(Cl)c1` (stereo not given in full) as the molecule, how does the MIC read?
A: 1 µg/mL (≈ 1.46 µM)

test system: Staphylococcus aureus; experiment: microbe, parasite or virus in culture; details: not given

Q: For `CCO/N=C(\C(=O)N[C@@H]1C(=O)N2C(C(=O)O)=C(CNC(=O)c3cc(O)c(O)c(Br)c3)CSC12)c1csc(N)n1` (stereo not given in full), which MIC is on record?
A: 4 µg/mL (≈ 6.24 µM)

test system: not listed separately; experiment: The compound was evaluated for area under the curve in marmosets; format: ADME; details: callithrix, in vivo

Q: With `CCO/N=C(\C(=O)N[C@@H]1C(=O)N2C(C(=O)O)=C(CNC(=O)c3cc(O)c(O)c(Br)c3)CSC12)c1csc(N)n1` (stereo not given in full) as the molecule, how does the AUC read?
A: 16.97 mg/h/L

Q: Which AUC does the source give for `CCN(CC1=C(C(=O)O)N2C(=O)[C@@H](NC(=O)/C(=N\OC(C)(C)C(=O)O)c3csc(N)n3)C2SC1)C(=O)c1cc(O)c(O)c(Cl)c1` (stereo not given in full) here?
A: 16.4 mg/h/L

test system: Citrobacter freundii; experiment: microbe, parasite or virus in culture; details: not given; remark: another data set of the same source

Q: Which MIC does the source give for `CCO/N=C(\C(=O)N[C@@H]1C(=O)N2C(C(=O)O)=C(CNC(=O)c3cc(O)c(O)c(Br)c3)CSC12)c1csc(N)n1` (stereo not given in full) here?
A: 0.008 µg/mL (≈ 0.0125 µM)

Q: Which MIC does the source give for `CCN(CC1=C(C(=O)O)N2C(=O)[C@@H](NC(=O)/C(=N\OC(C)(C)C(=O)O)c3csc(N)n3)C2SC1)C(=O)c1cc(O)c(O)c(Cl)c1` (stereo not given in full) here?
A: 0.008 µg/mL (≈ 0.0117 µM)

test system: not listed separately; experiment: physchem; details: not given

Q: For `CCO/N=C(\C(=O)N[C@@H]1C(=O)N2C(C(=O)O)=C(CNC(=O)c3cc(O)c(O)c(Br)c3)CSC12)c1csc(N)n1` (stereo not given in full), which pKa is on record?
A: 6.9

Q: Which pKa does the source give for `CCN(CC1=C(C(=O)O)N2C(=O)[C@@H](NC(=O)/C(=N\OC(C)(C)C(=O)O)c3csc(N)n3)C2SC1)C(=O)c1cc(O)c(O)c(Cl)c1` (stereo not given in full) here?
A: 7.4

test system: Enterobacter cloacae; experiment: microbe, parasite or virus in culture; details: not given; remark: another data set of the same source

Q: For `CCO/N=C(\C(=O)N[C@@H]1C(=O)N2C(C(=O)O)=C(CNC(=O)c3cc(O)c(O)c(Br)c3)CSC12)c1csc(N)n1` (stereo not given in full), which MIC is on record?
A: 0.03 µg/mL (≈ 0.0468 µM)

Q: For `CCN(CC1=C(C(=O)O)N2C(=O)[C@@H](NC(=O)/C(=N\OC(C)(C)C(=O)O)c3csc(N)n3)C2SC1)C(=O)c1cc(O)c(O)c(Cl)c1` (stereo not given in full), which MIC is on record?
A: 0.015 µg/mL (≈ 0.022 µM)

test system: Staphylococcus aureus; experiment: microbe, parasite or virus in culture; details: not given; remark: another data set of the same source

Q: Which MIC does the source give for `CCO/N=C(\C(=O)N[C@@H]1C(=O)N2C(C(=O)O)=C(CNC(=O)c3cc(O)c(O)c(Br)c3)CSC12)c1csc(N)n1` (stereo not given in full) here?
A: 2 µg/mL (≈ 3.12 µM)

test system: Escherichia coli; experiment: microbe, parasite or virus in culture; details: not given

Q: For `CCO/N=C(\C(=O)N[C@@H]1C(=O)N2C(C(=O)O)=C(CNC(=O)c3cc(O)c(O)c(Br)c3)CSC12)c1csc(N)n1` (stereo not given in full), which MIC is on record?
A: 0.008 µg/mL (≈ 0.0125 µM)

test system: Pseudomonas aeruginosa; experiment: microbe, parasite or virus in culture; details: not given; remark: another data set of the same source

Q: Which MIC does the source give for `CCO/N=C(\C(=O)N[C@@H]1C(=O)N2C(C(=O)O)=C(CNC(=O)c3cc(O)c(O)c(Br)c3)CSC12)c1csc(N)n1` (stereo not given in full) here?
A: 4 µg/mL (≈ 6.24 µM)

Q: With `CCN(CC1=C(C(=O)O)N2C(=O)[C@@H](NC(=O)/C(=N\OC(C)(C)C(=O)O)c3csc(N)n3)C2SC1)C(=O)c1cc(O)c(O)c(Cl)c1` (stereo not given in full) as the molecule, how does the MIC read?
A: 0.06 µg/mL (≈ 0.0878 µM)

test system: Escherichia coli; experiment: microbe, parasite or virus in culture; details: not given; remark: another data set of the same source

Q: With `CCO/N=C(\C(=O)N[C@@H]1C(=O)N2C(C(=O)O)=C(CNC(=O)c3cc(O)c(O)c(Br)c3)CSC12)c1csc(N)n1` (stereo not given in full) as the molecule, how does the MIC read?
A: 0.008 µg/mL (≈ 0.0125 µM)

test system: Pseudomonas aeruginosa; experiment: microbe, parasite or virus in culture; details: not given; remark: another data set of the same source

Q: With `CCO/N=C(\C(=O)N[C@@H]1C(=O)N2C(C(=O)O)=C(CNC(=O)c3cc(O)c(O)c(Br)c3)CSC12)c1csc(N)n1` (stereo not given in full) as the molecule, how does the MIC read?
A: 0.008 µg/mL (≈ 0.0125 µM)

Q: Which MIC does the source give for `CCN(CC1=C(C(=O)O)N2C(=O)[C@@H](NC(=O)/C(=N\OC(C)(C)C(=O)O)c3csc(N)n3)C2SC1)C(=O)c1cc(O)c(O)c(Cl)c1` (stereo not given in full) here?
A: 0.008 µg/mL (≈ 0.0117 µM)

test system: Pseudomonas aeruginosa; experiment: microbe, parasite or virus in culture; details: not given; remark: another data set of the same source

Q: For `CCO/N=C(\C(=O)N[C@@H]1C(=O)N2C(C(=O)O)=C(CNC(=O)c3cc(O)c(O)c(Br)c3)CSC12)c1csc(N)n1` (stereo not given in full), which MIC is on record?
A: 0.06 µg/mL (≈ 0.0935 µM)
